Results from patent publication US7795294B2, “Tetrahydro-2H-indazole pyrazole cannabinoid modulators” (Janssen Pharmaceutica N.V., priority 2006, dated 2010).

Tests used:
human CB1 receptor = biological target: T1, human CB1 receptor (Homo sapiens, UniProt P21554); assay: Binding assay for CB1 agonists or inverse agonists, [3H]-CP-55,940 displacement on membranes of transfected SK-N-MC cells; details: for inhibition at 0.2 µM: read-out: Cannabinoid CB1 Receptor Binding percent inhibition
T1 construct: expressed in transfected cells; host or cells: SK-N-MC cells, stably transfected with pcDNA3 CB-1 (human); semi-purified membrane pellet
T1 sequence (P21554 whole entry): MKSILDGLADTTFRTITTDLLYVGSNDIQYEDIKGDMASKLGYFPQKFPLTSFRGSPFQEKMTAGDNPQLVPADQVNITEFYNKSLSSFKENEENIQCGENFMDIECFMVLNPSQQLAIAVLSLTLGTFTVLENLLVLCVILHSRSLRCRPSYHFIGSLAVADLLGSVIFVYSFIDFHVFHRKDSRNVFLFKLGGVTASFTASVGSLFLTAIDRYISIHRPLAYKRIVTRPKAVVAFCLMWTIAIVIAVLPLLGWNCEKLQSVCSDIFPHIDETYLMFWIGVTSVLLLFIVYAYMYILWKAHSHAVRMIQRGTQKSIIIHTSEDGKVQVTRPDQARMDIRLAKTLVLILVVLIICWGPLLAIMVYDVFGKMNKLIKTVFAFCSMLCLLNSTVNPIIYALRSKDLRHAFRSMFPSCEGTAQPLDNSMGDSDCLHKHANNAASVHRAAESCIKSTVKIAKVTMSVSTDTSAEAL
Protocol: (§1) The human CB1 and CB2 receptors were stably expressed in SK-N-MC cells transfected with pcDNA3 CB-1 (human) or pcDNA3 CB-2 (human). The cells were grown in T-180 cell culture flasks under standard cell culture conditions at 37° C. in a 5% CO2 atmosphere. The cells were harvested by trysinization and homogenized in a homogenization buffer (10 mM Tris, 0.2 mM MgCl2, 5 mM KCl, with protease inhibitors aprotinin, leupeptin, pepstatin A and bacitracin) and centrifuged (2000 g). The supernatant was then centrifuged in 2M sucrose (31,300 g) to produce a semi-purified membrane pellet. The pellet was resuspended in homogenization and stored at −80° C.
(§2) On the day of the assay, the pellet was thawed on ice and diluted in assay buffer (50 mM Tris-HCl, 5 mM MgCl2, 2.5 mM EDTA, 0.5 mg/mL fatty acid free bovine serum albumin, pH 7.5). […] The plate was covered and incubated for 90 minutes at 30° C. The contents were then aspirated onto a Packard Unifilter GF/C filter bottom plate prewet with 0.5% polyethyleneimine. The wells of the polypropylene plate were rinsed and aspirated seven times with a 0.9% saline-0.5% Tween 20 solution. The Unifilter plate was dried, a scintillation cocktail was added to each well and the counts representing binding were quantitated in a TopCount scintillation counter.
(§3) For compounds tested, an IC50 binding value was obtained from percent inhibition studies in which various test concentrations were used. The binding value was calculated by linear regression. An average value is shown for those compounds where two or more IC50 values were obtained.
(§4) An average value is shown for those compounds where two or more percent inhibition values were obtained.

human CB2 receptor = biological target: T2, human CB2 receptor (Homo sapiens, UniProt P34972); assay: Binding assay for CB2 agonists or inverse agonists, [3H]-CP-55,940 displacement on membranes of transfected SK-N-MC cells; details: for inhibition at 0.2 µM: read-out: Cannabinoid CB2 Receptor Binding percent inhibition
T2 construct: expressed in transfected cells; host or cells: SK-N-MC cells, stably transfected with pcDNA3 CB-2 (human); semi-purified membrane pellet
T2 sequence (P34972 whole entry): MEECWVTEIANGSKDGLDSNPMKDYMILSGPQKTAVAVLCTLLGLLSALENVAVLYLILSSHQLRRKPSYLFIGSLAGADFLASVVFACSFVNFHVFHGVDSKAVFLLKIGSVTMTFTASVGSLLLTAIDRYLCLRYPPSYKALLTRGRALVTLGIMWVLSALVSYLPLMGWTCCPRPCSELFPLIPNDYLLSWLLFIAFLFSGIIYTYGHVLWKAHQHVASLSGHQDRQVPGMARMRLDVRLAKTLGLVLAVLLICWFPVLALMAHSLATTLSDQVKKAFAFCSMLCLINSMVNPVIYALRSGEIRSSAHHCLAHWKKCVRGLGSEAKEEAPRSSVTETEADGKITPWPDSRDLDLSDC
Protocol: as §1, §2, §3, §4

Row | SMILES | IC50 (human CB1 receptor) [nM] | inhibition at 0.2 µM (human CB2 receptor) [%] | IC50 (human CB2 receptor) [nM] | inhibition at 0.2 µM (human CB1 receptor) [%]
1 | O=C(NN1CCCCC1)C1CCCc2c1nn(-c1ccc(Cl)cc1Cl)c2-c1ccc(Br)cc1 (stereo not shown) [Cpd 41, 3-(4-bromo-phenyl)-2-(2,4-dichloro-phenyl)-4,5,6,7-tetrahydro-2H-indazole-7-carboxylic acid piperidin-1-ylamide] | 40 | 26 | – | –
2 | COc1ccc(-c2c3c(nn2-c2ccc(Cl)cc2Cl)[C@@H](C(=O)N[C@H](C)c2ccccc2)CCC3)cc1 [Cpd 25, (7S)-2-(2,4-dichloro-phenyl)-3-(4-methoxy-phenyl)-4,5,6,7-tetrahydro-2H-indazole-7-carboxylic acid [(1R)-1-phenyl-ethyl]-amide] | 4 | 35 | – | –
3 | O=C(N[C@H](CO)c1ccccc1)[C@H]1CCCc2c1nn(-c1ccc(Cl)cc1Cl)c2-c1ccc(Br)s1 [Cpd 56, (7S)-3-(5-bromo-thiophen-2-yl)-2-(2,4-dichloro-phenyl)-4,5,6,7-tetrahydro-2H-indazole-7-carboxylic acid [(1S)-2-hydroxy-1-phenyl-ethyl]-amide] | 46 | – | 300 | –
4 | O=C(NN1CC2CCCC2C1)C1CCCc2c1nn(-c1ccc(Cl)cc1Cl)c2-c1ccc(Cl)cc1 (stereo not shown) [Cpd 50, 3-(4-chloro-phenyl)-2-(2,4-dichloro-phenyl)-4,5,6,7-tetrahydro-2H-indazole-7-carboxylic acid (hexahydro-cyclopenta[c]pyrrol-2-yl)-amide] | – | 3 | – | 39
5 | Cc1ccc(-c2c3c(nn2Cc2ccccc2)C(C(=O)NC(C)C2CCCCC2)CCC3)cc1 (stereo not shown) [Cpd 8, 2-benzyl-3-p-tolyl-4,5,6,7-tetrahydro-2H-indazole-7-carboxylic acid (1-cyclohexyl-ethyl)-amide] | 240 | – | 1100 | –
6 | COc1ccc(-n2nc3c(c2-c2ccc(C)cc2)CCCC3C(=O)NC(C)C23CCC4CC(CC4C2)C3)cc1 (stereo not shown) [Cpd 2, 2-(4-methoxy-phenyl)-3-p-tolyl-4,5,6,7-tetrahydro-2H-indazole-7-carboxylic acid [1-(octahydro-2,5-methano-inden-5-yl)-ethyl]-amide] | 2130 | – | 2600 | –
7 | CC(NC(=O)C1CCCc2c1nn(Cc1ccccc1)c2-c1ccc(Cl)cc1)C1CCCCC1 (stereo not shown) [Cpd 5, 2-benzyl-3-(4-chloro-phenyl)-4,5,6,7-tetrahydro-2H-indazole-7-carboxylic acid (1-cyclohexyl-ethyl)-amide] | 700 | – | 6100 | –
8 | CC(NC(=O)C1CCCc2c1nn(Cc1ccccc1)c2-c1ccc(Cl)cc1)C12CC3CC(CC(C3)C1)C2 (stereo not shown) [Cpd 18, 2-benzyl-3-(4-chloro-phenyl)-4,5,6,7-tetrahydro-2H-indazole-7-carboxylic acid (1-adamantan-1-yl-ethyl)-amide] | 6200 | – | 1900 | –
9 | C[C@@H](NC(=O)[C@@H]1CCCc2c1nn(-c1ccc(Cl)cc1Cl)c2-c1ccc(Cl)s1)c1ccccc1 [Cpd 49, (7R)-3-(5-chloro-thiophen-2-yl)-2-(2,4-dichloro-phenyl)-4,5,6,7-tetrahydro-2H-indazole-7-carboxylic acid [(1R)-1-phenyl-ethyl]-amide] | 7 | 14 | – | –
10 | C[C@@H](NC(=O)[C@H]1CCCc2c1nn(-c1ccc(Cl)cc1Cl)c2-c1ccc(Cl)cc1)c1ccccc1 [Cpd 39, (7S)-3-(4-chloro-phenyl)-2-(2,4-dichloro-phenyl)-4,5,6,7-tetrahydro-2H-indazole-7-carboxylic acid [(1R)-1-phenyl-ethyl]-amide] | 22 | 1 | – | –
11 | C[C@@H](NC(=O)[C@H]1CCCc2c1nn(-c1ccc(Cl)cc1Cl)c2-c1ccc(Br)cc1)c1ccccc1 [Cpd 45, (7S)-3-(4-bromo-phenyl)-2-(2,4-dichloro-phenyl)-4,5,6,7-tetrahydro-2H-indazole-7-carboxylic acid [(1R)-1-phenyl-ethyl]-amide] | – | 11 | – | 66
